# From patent US7786137B2, “Bicyclic derivatives as modulators of ion channels” (Vertex Pharmaceuticals Incorporated, priority 2005, dated 2010)
# Target: NaV1.3 (Homo sapiens, UniProt Q9NY46)
# Assay: VIPR optical membrane potential assay, NaV1.3 inhibition
# Type: cell-based
# Parameters: expressed in transfected cells; host or cells: HEK293
# Conditions: activity against NaV 1.3 channel
# Method: Antagonist properties of test compounds were assessed as follows. Cells expressing the NaV of interest were placed into microtiter plates. After an incubation period, the cells were stained with fluorescent dyes sensitive to the transmembrane potential. The test compounds were added to the microtiter plate. The cells were stimulated with either a chemical or electrical means to evoke a NaV dependent membrane potential change from unblocked channels, which was detected and measured with trans-membrane potential-sensitive dyes. Antagonists were detected as a decreased membrane potential response to the stimulus.
# The following is an example of how NaV1.3 inhibition activity is measured using the optical membrane potential method#2. Other subtypes are performed in an analogous mode in a cell line expressing the NaV of interest.
# HEK293 cells stably expressing NaV1.3 are plated into 96-well microtiter plates. After an appropriate incubation period, the cells are stained with the voltage sensitive dyes CC2-DMPE/DiSBAC2(3) as follows.
# 2× CC2-DMPE=20 μM CC2-DMPE: 10 mM CC2-DMPE is vortexed with an equivalent volume of 10% pluronic, followed by vortexing in required amount of HBSS containing 10 mM HEPES. Each cell plate will require 5 mL of 2× CC2-DMPE. 50 μL of 2× CC2-DMPE is to wells containing washed cells, resulting in a 10 μM final staining concentration. The cells are stained for 30 minutes in the dark at RT.
# 2× DISBAC2(3) with ABSC1=6 μM DISBAC2(3) and 1 mM ABSC1: The required amount of 10 mM DISBAC2(3) is added to a 50 ml conical tube and mixed with 1 μL 10% pluronic for each mL of solution to be made and vortexed together. Then HBSS/HEPES is added to make up 2× solution. Finally, the ABSC1 is added.
# The 2× DiSBAC2(3) solution can be used to solvate compound plates. Note that compound plates are made at 2× drug concentration. Wash stained plate again, leaving residual volume of 50 μL. Add 50 μL/well of the 2× DiSBAC2(3) w/ABSC1. Stain for 30 minutes in the dark at RT.
# The instrument comprises a microtiter plate handler, an optical system for exciting the coumarin dye while simultaneously recording the coumarin and oxonol emissions, a waveform generator, a current- or voltage-controlled amplifier, and a device for inserting electrodes in well. Under integrated computer control, this instrument passes user-programmed electrical stimulus protocols to cells within the wells of the microfilter plate.
# Insert or use electrodes into each well to be assayed.
# Use the current-controlled amplifier to deliver stimulation wave pulses for 3 s. Two seconds of pre-stimulus recording are performed to obtain the un-stimulated intensities. Five seconds of post-stimulation recording are performed to examine the relaxation to the resting state.
# Data are analyzed and reported as normalized ratios of background-subtracted emission intensities measured in the 460 nm and 580 nm channels. Background intensities are then subtracted from each assay channel. Background intensities are obtained by measuring the emission intensities during the same time periods from identically treated assay wells in which there are no cells. The response as a function of time is then reported as the ratios obtained using the following formula: […]
# The data is further reduced by calculating the initial (Ri) and final (Rf) ratios. These are the average ratio values during part or all of the pre-stimulation period, and during sample points during the stimulation period. The response to the stimulus ? =Rf/Ri is then calculated.
# Control responses are obtained by performing assays in the presence of a compound with the desired properties (positive control), such as tetracaine, and in the absence of pharmacological agents (negative control). Responses to the negative (N) and positive (P) controls are calculated as above. The compound antagonist activity A is defined as:
# [formula] where R is the ratio response of the test compound.
# Chain of NaV1.3 (Q9NY46 whole entry): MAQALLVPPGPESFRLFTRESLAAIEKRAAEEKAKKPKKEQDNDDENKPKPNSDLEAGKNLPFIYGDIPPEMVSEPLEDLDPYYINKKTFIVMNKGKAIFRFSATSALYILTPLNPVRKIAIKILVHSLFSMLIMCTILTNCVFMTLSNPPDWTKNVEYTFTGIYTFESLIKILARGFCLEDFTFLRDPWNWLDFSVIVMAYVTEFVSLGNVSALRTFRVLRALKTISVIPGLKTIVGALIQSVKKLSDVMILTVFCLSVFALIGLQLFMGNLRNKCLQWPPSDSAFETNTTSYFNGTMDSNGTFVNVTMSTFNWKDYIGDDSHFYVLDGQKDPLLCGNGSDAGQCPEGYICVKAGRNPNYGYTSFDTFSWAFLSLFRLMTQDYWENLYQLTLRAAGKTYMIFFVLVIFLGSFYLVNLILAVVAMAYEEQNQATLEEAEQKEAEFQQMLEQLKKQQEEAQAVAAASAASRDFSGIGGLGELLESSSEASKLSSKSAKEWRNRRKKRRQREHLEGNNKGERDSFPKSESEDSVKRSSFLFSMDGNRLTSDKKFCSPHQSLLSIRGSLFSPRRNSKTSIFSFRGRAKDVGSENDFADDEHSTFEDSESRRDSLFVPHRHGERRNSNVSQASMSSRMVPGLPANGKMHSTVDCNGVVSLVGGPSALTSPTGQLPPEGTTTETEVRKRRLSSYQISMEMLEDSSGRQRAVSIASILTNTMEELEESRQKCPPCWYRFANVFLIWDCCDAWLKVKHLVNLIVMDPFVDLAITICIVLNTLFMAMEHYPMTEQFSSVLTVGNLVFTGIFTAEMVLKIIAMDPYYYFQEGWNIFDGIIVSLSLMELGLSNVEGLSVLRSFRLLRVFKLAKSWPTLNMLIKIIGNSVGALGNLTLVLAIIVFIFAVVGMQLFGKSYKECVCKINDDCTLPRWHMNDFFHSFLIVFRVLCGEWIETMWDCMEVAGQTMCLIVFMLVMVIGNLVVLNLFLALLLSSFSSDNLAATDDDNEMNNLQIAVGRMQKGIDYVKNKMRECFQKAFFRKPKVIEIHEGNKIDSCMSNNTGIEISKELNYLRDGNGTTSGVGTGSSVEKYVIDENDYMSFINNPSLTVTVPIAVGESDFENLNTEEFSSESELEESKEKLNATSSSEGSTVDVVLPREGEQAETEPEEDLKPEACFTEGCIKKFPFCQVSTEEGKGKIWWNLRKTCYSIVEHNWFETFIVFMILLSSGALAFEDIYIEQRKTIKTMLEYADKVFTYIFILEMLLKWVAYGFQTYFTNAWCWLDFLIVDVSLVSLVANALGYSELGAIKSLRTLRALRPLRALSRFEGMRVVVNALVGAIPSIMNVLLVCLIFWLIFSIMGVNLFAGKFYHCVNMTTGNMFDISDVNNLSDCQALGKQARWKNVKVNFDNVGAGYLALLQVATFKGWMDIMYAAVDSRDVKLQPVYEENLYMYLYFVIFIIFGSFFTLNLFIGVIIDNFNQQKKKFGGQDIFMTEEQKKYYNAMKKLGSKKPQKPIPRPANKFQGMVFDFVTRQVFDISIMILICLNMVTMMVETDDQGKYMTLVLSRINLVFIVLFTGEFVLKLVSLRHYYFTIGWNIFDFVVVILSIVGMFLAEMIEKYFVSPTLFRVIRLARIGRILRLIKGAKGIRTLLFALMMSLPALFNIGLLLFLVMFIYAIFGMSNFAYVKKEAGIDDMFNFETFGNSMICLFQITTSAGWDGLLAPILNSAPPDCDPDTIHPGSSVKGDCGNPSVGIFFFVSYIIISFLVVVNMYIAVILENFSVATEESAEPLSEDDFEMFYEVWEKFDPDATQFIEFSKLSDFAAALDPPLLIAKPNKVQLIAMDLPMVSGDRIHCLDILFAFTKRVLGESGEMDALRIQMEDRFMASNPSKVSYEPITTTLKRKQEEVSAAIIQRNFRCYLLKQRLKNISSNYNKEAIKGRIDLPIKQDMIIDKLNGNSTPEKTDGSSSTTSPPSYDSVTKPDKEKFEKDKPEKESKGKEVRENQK
row,IC50 [nM],SMILES
1,> 5000,O=C(CN1CCCc2ccccc21)N1CCCc2cc(S(=O)(=O)Nc3nccs3)ccc21 [Compound 101]
2,< 2000,O=C(ON1Cc2ccc(S(=O)(=O)Nc3nccs3)cc2C1)c1ccc(Cl)cc1 [Compound 102]
3,2000 to 5000,O=C(c1ccccc1Cl)n1ccc2cc(S(=O)(=O)Nc3nccs3)ccc21 [Compound 103]
4,> 5000,O=C(CNC1CCCCC1)N1CCc2cc(S(=O)(=O)Nc3nccs3)ccc21 [Compound 104]
5,2000 to 5000,CCc1nnc(NS(=O)(=O)c2ccc3c(c2)CN(C(=O)[C@@H](C)n2ccc4c(F)cccc42)C3)s1 [Compound 105]
6,2000 to 5000,O=C(Oc1cccc(C(F)(F)F)c1)N1CCc2cc(S(=O)(=O)Nc3nccs3)ccc21 [Compound 106]
7,< 2000,Cc1ccccc1CC(=O)N1CCc2cc(S(=O)(=O)Nc3nccs3)ccc21 [Compound 107]
8,> 5000,COc1cc(NCC(=O)N2CCc3cc(S(=O)(=O)Nc4nccs4)ccc32)cc(OC)c1 [Compound 108]
9,< 2000,O=C(c1cc(Cl)ccc1Cl)N1CCc2cc(S(=O)(=O)Nc3nccs3)ccc21 [Compound 109]
10,2000 to 5000,COc1ccc(F)cc1C(=O)n1ccc2cc(S(=O)(=O)Nc3nccs3)ccc21 [Compound 110]
11,< 2000,O=C(COc1cccc(Cl)c1)N1CCCc2cc(S(=O)(=O)Nc3nccs3)ccc21 [Compound 111]
12,< 2000,O=C(COc1ccccc1)N1CCc2cc(S(=O)(=O)Nc3nccs3)ccc21 [Compound 112]
13,2000 to 5000,O=C(COc1ccccc1)N1CCCc2cc(S(=O)(=O)Nc3nccs3)ccc21 [Compound 113]
14,> 5000,O=C(c1ccc(F)cc1)N1CCCc2cc(S(=O)(=O)Nc3nccs3)ccc21 [Compound 114]
15,< 2000,O=C(COc1ccc(F)cc1)N1Cc2ccc(S(=O)(=O)Nc3nccs3)cc2C1 [Compound 115]
16,< 2000,O=C(c1ccc(Cl)cc1Cl)N1CCc2cc(S(=O)(=O)Nc3nccs3)ccc21 [Compound 116]
17,> 5000,O=C(Oc1ccc(Cl)cc1)N1CCc2cc(S(=O)(=O)Nc3nccs3)ccc21 [Compound 117]
18,> 5000,O=C(c1ccc(F)cc1F)N1CCc2cc(S(=O)(=O)Nc3ncns3)ccc21 [Compound 118]
19,> 5000,O=C(c1ccc(F)cc1)N1CCc2ccc(S(=O)(=O)Nc3nccs3)cc2C1 [Compound 119]
20,< 2000,O=C(CN1CCCc2cc(Cl)ccc21)N1Cc2ccc(S(=O)(=O)Nc3ncns3)cc2C1 [Compound 120]

row,IC50 [nM],SMILES
1,< 2000,O=C(CCn1ccc2cc(Cl)ccc21)N1CCc2ccc(S(=O)(=O)Nc3nccs3)cc2C1 [Compound 121]
2,< 2000,O=C(COc1ccnc2c(C(F)(F)F)cccc12)N1Cc2ccc(S(=O)(=O)Nc3ncns3)cc2C1 [Compound 122]
3,2000 to 5000,O=C(c1ccccc1F)N1CCc2ccc(S(=O)(=O)Nc3nccs3)cc2C1 [Compound 123]
4,< 2000,C[C@@H](C(=O)N1Cc2ccc(S(=O)(=O)Nc3ncns3)cc2C1)n1ccc2c(F)cccc21 [Compound 124]
5,< 2000,CC(Oc1ccccc1)C(=O)N1CCc2cc(S(=O)(=O)Nc3ncns3)ccc21 (stereo not drawn) [Compound 125]
6,2000 to 5000,O=C(c1ccc(Cl)c(Cl)c1)n1ccc2cc(S(=O)(=O)Nc3nccs3)ccc21 [Compound 126]
7,< 2000,O=C(CCn1ccc2cc(Cl)ccc21)N1Cc2ccc(S(=O)(=O)Nc3ncns3)cc2C1 [Compound 127]
8,< 2000,Cc1ccc(C(=O)n2ccc3cc(S(=O)(=O)Nc4nccs4)ccc32)cc1F [Compound 128]
9,> 5000,O=C(COc1cccnc1)N1CCc2cc(S(=O)(=O)Nc3nccs3)ccc21 [Compound 129]
10,> 5000,C[C@@H](C(=O)N1CCc2cc(S(=O)(=O)Nc3ncns3)ccc21)n1ccc2ccccc21 [Compound 130]
11,< 2000,O=C(COc1cccc(Cl)c1)N1CCc2cc(S(=O)(=O)Nc3nccs3)ccc21 [Compound 131]
12,2000 to 5000,O=C(c1ccc(C(F)(F)F)cc1)N1CCCc2cc(S(=O)(=O)Nc3nccs3)ccc21 [Compound 132]
13,> 5000,O=C(CN1CCCc2cc(Cl)ccc21)N1CCc2cc(S(=O)(=O)Nc3ccncn3)ccc21 [Compound 133]
14,< 2000,Cc1ccccc1OCC(=O)N1CCc2cc(S(=O)(=O)Nc3nccs3)ccc21 [Compound 134]
15,2000 to 5000,CCc1nnc(NS(=O)(=O)c2ccc3c(c2)CN(C(=O)[C@@H](C)N2CCCc4cc(Cl)ccc42)C3)s1 [Compound 135]
16,< 2000,O=C(Cc1c(Cl)cccc1Cl)N1CCc2cc(S(=O)(=O)Nc3nccs3)ccc21 [Compound 136]
17,< 2000,O=C(CN1CCc2ccc(F)cc2C1)N1CCc2cc(S(=O)(=O)Nc3nccs3)ccc21 [Compound 137]
18,< 2000,Cc1cccc(C)c1OCC(=O)N1CCc2cc(S(=O)(=O)Nc3nccs3)ccc21 [Compound 138]
19,< 2000,CC(C)(C)c1ccc(OCC(=O)N2CCCc3cc(S(=O)(=O)Nc4ncns4)ccc32)cc1 [Compound 139]
20,< 2000,O=C(COc1ccnc2c(C(F)(F)F)cccc12)N1CCc2ccc(S(=O)(=O)Nc3nccs3)cc2C1 [Compound 140]

row,IC50 [nM],SMILES
1,> 5000,CC(Oc1ccc(OC(F)(F)F)cc1)C(=O)N1CCc2ccc(S(=O)(=O)Nc3nccs3)cc2C1 (stereo not drawn) [Compound 141]
2,< 2000,C[C@@H](C(=O)N1CCc2cc(S(=O)(=O)Nc3ncns3)ccc21)n1ccc2c(F)cccc21 [Compound 142]
3,< 2000,O=C(CNc1ccccc1F)N1CCc2cc(S(=O)(=O)Nc3nccs3)ccc21 [Compound 144]
4,> 5000,C[C@H](C(=O)N1Cc2ccc(S(=O)(=O)Nc3ccc(Cl)nn3)cc2C1)N1CCCc2cc(Cl)ccc21 [Compound 146]
5,< 2000,O=C(COc1ccc(Cl)cc1)N1CCc2cc(S(=O)(=O)Nc3ncns3)ccc21 [Compound 147]
6,< 2000,CC(Oc1ccccc1Cl)C(=O)N1CCc2cc(S(=O)(=O)Nc3nccs3)ccc21 (stereo not drawn) [Compound 148]
7,< 2000,O=C(COc1ccccc1Cl)N1CCc2ccc(S(=O)(=O)Nc3nccs3)cc2C1 [Compound 149]
8,> 5000,CC(C)(C)c1ccc(OCC(=O)N2CCc3ccc(S(=O)(=O)Nc4nccs4)cc3C2)cc1 [Compound 150]
9,2000 to 5000,O=C(c1ccc(Cl)cc1Cl)N1CCc2ccc(S(=O)(=O)Nc3nccs3)cc2C1 [Compound 151]
10,> 5000,Cc1nnc(NS(=O)(=O)c2ccc3c(c2)CN(C(=O)COc2ccnc4c(C(F)(F)F)cccc24)CC3)s1 [Compound 152]
11,> 5000,O=C(CN1CCC(F)(F)CC1)N1CCc2cc(S(=O)(=O)Nc3nccs3)ccc21 [Compound 153]
12,< 2000,O=C(COc1ccc(F)c(Cl)c1)N1CCCc2cc(S(=O)(=O)Nc3nccs3)ccc21 [Compound 154]
13,< 2000,CC(C)(C)c1ccc(OCC(=O)N2Cc3ccc(S(=O)(=O)Nc4nccs4)cc3C2)cc1 [Compound 155]
14,> 5000,O=C(CCCOc1ccc(Cl)cc1Cl)N1CCc2cc(S(=O)(=O)Nc3ncccn3)ccc21 [Compound 156]
15,> 5000,O=S(=O)(Nc1nccs1)c1ccc2c(c1)CCN2CCNc1nc2ccccc2s1 [Compound 157]
16,< 2000,COc1ccc(CCC(=O)N2CCc3cc(S(=O)(=O)Nc4nccs4)ccc32)cc1 [Compound 159]
17,2000 to 5000,CC(Oc1ccccc1Cl)C(=O)n1ccc2cc(S(=O)(=O)Nc3nccs3)ccc21 (stereo not drawn) [Compound 160]
18,> 5000,O=C(CNC1CCC1)N1CCc2cc(S(=O)(=O)Nc3nccs3)ccc21 [Compound 161]
19,2000 to 5000,O=C(c1cc(Cl)ccc1Cl)n1ccc2cc(S(=O)(=O)Nc3nccs3)ccc21 [Compound 162]
20,2000 to 5000,O=C(Oc1ccccc1)N1CCc2cc(S(=O)(=O)Nc3nccs3)ccc21 [Compound 163]
